Reference: PMC12090193, “Flavonoid carbamate hybrids: design, synthesis, and evaluation as multi-target enzyme inhibitors for Alzheimer's disease” (RSC Advances, 2025)
Like-named read-outs stand apart in the source and are kept apart here.

What was measured:
AChE = target: T1, AChE (Homo sapiens, UniProt P22303); experiment: AChE inhibition assay (Ellman's method); assay type: biochemical
T1 construct: purchased Sigma-Aldrich (Germany)
Experimental: The AChE inhibitory activity of the synthesized compounds was determined using Ellman's method, with slight modifications to optimize experimental conditions.[35] The assay was performed following the procedures described in our previous study.[36]

MAGL = target: T2, MAGL (Homo sapiens, UniProt Q99685); experiment: biochemical
T2 construct: purchased Finetest (China)
T2 sequence (Q99685 1-303): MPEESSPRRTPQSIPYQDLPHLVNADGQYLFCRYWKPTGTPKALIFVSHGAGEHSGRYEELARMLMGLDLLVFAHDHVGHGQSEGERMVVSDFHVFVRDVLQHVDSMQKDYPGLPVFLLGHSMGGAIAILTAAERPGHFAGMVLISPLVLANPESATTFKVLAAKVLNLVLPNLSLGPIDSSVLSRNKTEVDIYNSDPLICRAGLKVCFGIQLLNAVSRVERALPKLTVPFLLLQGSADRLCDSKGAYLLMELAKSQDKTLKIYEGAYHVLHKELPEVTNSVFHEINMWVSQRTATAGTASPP
Experimental: The MAGL inhibitory activity of the synthesized compounds was assessed using a spectrophotometric assay, employing 4-NPA as a surrogate substrate. The experimental procedure was adapted from a previously published protocol with minor modifications.[37]
The assay was conducted at room temperature using an ELISA reader (EMR-500) with a 96-well plate, with a total reaction volume of 200 μL per well. The reaction system comprised 10 mM tris–HCl buffer (pH 7.2), 1 mM EDTA, and 0.1 mg mL^−1 bovine serum albumin. […] The negative control was prepared by replacing the inhibitor with 10 μL of DMSO. The enzymatic reaction was initiated by adding 40 μL of MAGL enzyme solution (11 ng per well), while the blank control used buffer instead of the enzyme. The reaction mixtures were incubated for 30 minutes, and absorbance was measured at 405 nm. Each sample was tested in triplicate, and IC50 values were determined from the obtained data using GraphPad Prism 8.4.3.

[1] = Ellman's method, read-out: IC50 ± SD AChE
[2] = 4-NPA 100 μM, 30 min, absorbance 405 nm, triplicate, read-out: IC50 ± SD MAGL

T1 sequence (P22303 32-614): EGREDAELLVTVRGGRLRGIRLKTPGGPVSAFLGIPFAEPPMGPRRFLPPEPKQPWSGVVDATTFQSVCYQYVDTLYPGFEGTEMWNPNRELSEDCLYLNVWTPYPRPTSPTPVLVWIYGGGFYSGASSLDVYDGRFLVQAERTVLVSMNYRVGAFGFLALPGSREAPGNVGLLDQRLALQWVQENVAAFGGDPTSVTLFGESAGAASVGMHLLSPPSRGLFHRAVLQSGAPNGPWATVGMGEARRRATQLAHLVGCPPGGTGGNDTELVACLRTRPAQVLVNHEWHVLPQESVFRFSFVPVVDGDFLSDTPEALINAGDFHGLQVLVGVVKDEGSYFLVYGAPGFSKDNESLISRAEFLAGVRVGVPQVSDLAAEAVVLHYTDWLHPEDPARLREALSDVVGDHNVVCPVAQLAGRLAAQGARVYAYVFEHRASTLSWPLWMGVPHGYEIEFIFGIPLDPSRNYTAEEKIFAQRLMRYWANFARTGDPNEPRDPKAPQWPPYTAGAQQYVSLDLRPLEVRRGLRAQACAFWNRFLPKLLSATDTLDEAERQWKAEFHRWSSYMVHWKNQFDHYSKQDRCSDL

Compound: O=c1cc(-c2ccccc2)oc2cc(O)cc(O)c12 [Chrysin, reference compound]
- IC50 (AChE; [1]): 157 ± 11.7 µM
- IC50 (MAGL; [2]): 169 ± 11.4 µM

Compound: CCN(CC)C(=O)Oc1ccc(-c2oc3cc(OC(=O)N(CC)CC)cc(O)c3c(=O)c2OC(=O)N(CC)CC)cc1 [Compound K3, 2-(4-((Diethylcarbamoyl)oxy)phenyl)-5-hydroxy-4-oxo-4H-chromene-3,7-diyl bis(diethylcarbamate)]
- IC50 (AChE; [1]): 146 ± 10.4 µM
- IC50 (MAGL; [2]): 61.6 ± 3.01 µM

Compound: CN(C)C(=O)Oc1ccc(-c2oc3cc(OC(=O)N(C)C)cc(OC(=O)N(C)C)c3c(=O)c2OC(=O)N(C)C)cc1 [Compound K2, 2-(4-((Dimethylcarbamoyl)oxy)phenyl)-4-oxo-4H-chromene-3,5,7-triyl tris(dimethylcarbamate)]
- IC50 (AChE): > 200 µM
- IC50 (MAGL): > 200 µM

Compound: CCN(CC)C(=O)Oc1cc(O)c2c(=O)cc(-c3ccccc3)oc2c1 [Compound C3, 5-Hydroxy-4-oxo-2-phenyl-4H-chromen-7-yl diethylcarbamate]
- IC50 (AChE; [1]): 61.8 ± 1.42 µM
- IC50 (MAGL; [2]): 22.9 ± 1.3 µM

Compound: CCN(C)C(=O)Oc1cc(O)c2c(=O)cc(-c3ccccc3)oc2c1 [Compound C5, 5-Hydroxy-4-oxo-2-phenyl-4H-chromen-7-yl ethyl(methyl)carbamate]
- IC50 (AChE): 89.4 ± 5.66 µM
- IC50 (MAGL): 46.6 ± 2.23 µM

Compound: CCN(C)C(=O)Oc1ccc(-c2oc3cc(OC(=O)N(C)CC)cc(OC(=O)N(C)CC)c3c(=O)c2OC(=O)N(C)CC)cc1 [Compound K6, 2-(4-((Ethyl(methyl)carbamoyl)oxy)phenyl)-4-oxo-4H-chromene-3,5,7-triyl tris(ethyl(methyl)carbamate)]
- IC50 (AChE): > 200 µM
- IC50 (MAGL): 178 ± 9.12 µM

Compound: CN(C)C(=O)Oc1cc(OC(=O)N(C)C)c2c(=O)cc(-c3ccccc3)oc2c1 [Compound C2, 4-Oxo-2-phenyl-4H-chromene-5,7-diyl bis(dimethylcarbamate)]
- IC50 (AChE): > 200 µM
- IC50 (MAGL): 96.4 ± 1.54 µM

Compound: CCN(C)C(=O)Oc1cc(OC(=O)N(C)CC)c2c(=O)cc(-c3ccccc3)oc2c1 [Compound C6, 4-Oxo-2-phenyl-4H-chromene-5,7-diyl bis(ethyl(methyl)carbamate)]
- IC50 (AChE): > 200 µM
- IC50 (MAGL): > 200 µM

Compound: CN(C)C(=O)Oc1cc(O)c2c(=O)cc(-c3ccccc3)oc2c1 [Compound C1, 5-Hydroxy-4-oxo-2-phenyl-4H-chromen-7-yl dimethylcarbamate]
- IC50 (AChE): 188 ± 16.2 µM
- IC50 (MAGL): 72.2 ± 5.34 µM

Compound: CCN(CC)C(=O)Oc1ccc(-c2oc3cc(OC(=O)N(CC)CC)cc(OC(=O)N(CC)CC)c3c(=O)c2OC(=O)N(CC)CC)cc1 [Compound K4, 2-(4-((Diethylcarbamoyl)oxy)phenyl)-4-oxo-4H-chromene-3,5,7-triyl tris(diethylcarbamate)]
- IC50 (AChE; [1]): > 200 µM
- IC50 (MAGL; [2]): > 200 µM

Compound: O=c1c(O)c(-c2ccc(O)cc2)oc2cc(O)cc(O)c12 [Kaempferol, reference compound]
- IC50 (AChE): 226 ± 17.9 µM
- IC50 (MAGL; [2]): 189 ± 7.89 µM

Compound: CCN(CC)C(=O)Oc1cc(OC(=O)N(CC)CC)c2c(=O)cc(-c3ccccc3)oc2c1 [Compound C4, 4-Oxo-2-phenyl-4H-chromene-5,7-diyl bis(diethylcarbamate)]
- IC50 (AChE; [1]): > 200 µM
- IC50 (MAGL; [2]): > 200 µM

Compound: CN(C)C(=O)Oc1ccc(-c2oc3cc(OC(=O)N(C)C)cc(O)c3c(=O)c2OC(=O)N(C)C)cc1 [Compound K1, 2-(4-((Dimethylcarbamoyl)oxy)phenyl)-5-hydroxy-4-oxo-4H-chromene-3,7-diyl bis(dimethylcarbamate)]
- IC50 (AChE): 100 ± 7.85 µM
- IC50 (MAGL): 126 ± 8.28 µM

Compound: CCN(C)C(=O)Oc1ccc(-c2oc3cc(OC(=O)N(C)CC)cc(O)c3c(=O)c2OC(=O)N(C)CC)cc1 [Compound K5, 2-(4-((Ethyl(methyl)carbamoyl)oxy)phenyl)-5-hydroxy-4-oxo-4H-chromene-3,7-diyl bis(ethyl(methyl)carbamate)]
- IC50 (AChE): > 200 µM
- IC50 (MAGL): 60.1 ± 4.74 µM
